Data on four molecules can be found in patent US9603869B2, “Lithium co-crystals and an additional neuropsychiatric agent for treatment of neuropsychiatric disorders” (UNIVERSITY OF SOUTH FLORIDA, priority 2015, dated 2017).

The conditions of data set [1]: C57BL/6J mice, diet 1 or 2 weeks, lithium 1.125 or 2.25 mmol/kg/day. As to the method:
All mice received normal drinking water ad libitum. Statistical analysis was carried out following ANOVA analysis.

The test system of data set [2] is COX2. The settings on record: C57BL/6J male mice, diet 1 or 2 weeks, lithium 1.125 and 2.25 mmol/kg/day. An excerpt:
All mice received normal drinking water ad libitum. Kidneys were collected after treatment and analyzed by immunohistochemistry for COX2 expression in the renal medulla (FIG. 21A). In addition, the kidney microsomal proteins were extracted to assess COX2 expression by WB (FIGS. 21B-1, 21B-2). Data are expressed as mean±SD in duplicates from six mice in each group (FIG. 21B-3).

Data set [3] concerns Human neural stem cells (H9-Derived). Put plainly: Human neuronal stem cell differentiation (MAP2, GFAP). In kind it is cell-based. The settings on record: human neural stem cells, 10 mM, 14 days, P>0.05. The text has this:
Human neural stem cells (H9-Derived) were obtained from Life technologies and cultured with StemPro® NSC SFM media. […] DAPI was used to detect nuclear DNA. Confocal images were taken by Olympus Fluoview™ FV1000 laser scanning confocal microscope (FIG. 18A).

A further data set relates to N2a cells. Kind of data set: Neuronal cell differentiation of N2a cells (β-tubulin III, phospho-synapsin I). The settings on record: 10 mM, 24 hours, P>0.05. In kind it is cell-based, mouse. As to the method:
FIGS. 5A-5C. […] These cells were then permeabilized with 0.05% Triton X-100 for 5 minutes, washed and stained with mouse anti-β-tubulin III monoclonal antibody ([…]™) and rabbit anti-phospho-Synapsin I (Ser^62, Ser^67) polyclonal antibody (EMD Millipore) overnight at 4° C. […] Confocal images were taken by Olympus fluoview FV1000 laser scanning confocal microscope (Tokyo, Japan).
These cells were then permeabilized with 0.05% Triton X-100 for 5 min, washed, and stained with mouse anti-β-tubulin III monoclonal antibody ([…]™) and rabbit anti-phospho-synapsin I (Ser^62, Ser^67) polyclonal antibody (EMD Millipore) overnight at 4° C. […] Confocal images were taken by Olympus Fluoview™ FV1000 laser scanning confocal microscope (Tokyo, Japan) (FIG. 5A).

Data set [4] concerns Murine neuronal stem cells. Put plainly: Murine neuronal stem cell differentiation (MAP2, total tau, phospho-synapsin I). In kind it is cell-based, mouse. The settings on record: murine neuronal stem cells, 10 mM, 4 days, P>0.05. Here is the method:
FIGS. 6A-6F. […] These cells were then permeabilized, washed and stained with mouse anti-MAP2 monoclonal antibody (EMD Millipore) or mouse anti-total tau (tau46) antibody overnight at 4° C. […] Confocal images were taken by Olympus fluoview FV1000 laser scanning confocal microscope. […] DAPI staining (Life Technologies) was used to detect nuclear DNA. Confocal images were taken by Olympus Fluoview™ FV1000 laser scanning confocal microscope (FIG. 17A). […] The band density ratios of MAP2 to β-actin, total tau to β-actin, and phospho-synapsin I to β-actin are presented as mean±S.D (FIGS. 17B-1, 17B-2, and 17B-3, respectively).

For data set [5], the system named is COX2. Kind of data set: COX2 expression Western blot in human renal proximal tubule (HRPT) cells. The settings on record: 0 to 30 mM, 12 hours. Background: Immunoblotting shows a protein as a band on a membrane.
Source text: These cells were then lysed with cell lysis buffer and analyzed by WB for COX2, total GSK3β and phospho GSK3β (Ser9 and Thr390) expression using anti-COX2 antibody (FIG. 7A, ABCAM®) and anti-phospho- and total GSK3β antibodies (FIG. 7B).
These cells were then lysed with cell lysis buffer and analyzed by WB for COX2, total GSK3β and phospho GSK3β (Ser^9) expressions using anti-COX2 antibody (FIG. 20A, Abcam®) and anti-phospho- and total GSK3β antibodies (FIG. 20B).
For data set [6], the system named is GSK3β. Kind of data set: GSK3β phosphorylation Western blot in human renal proximal tubule (HRPT) cells. The settings on record: 0 to 30 mM, 12 hours. In kind it is cell-based.
Data set [7] concerns Mouse primary microglial cells. Put plainly: Autophagy (LC3B staining) in mouse primary microglial cells. In kind it is cell-based. The settings on record: 10 mM, 18 hours; for autophagy (LC3B fluorescence intensity of autophagosomes and cytosol): vs PBS control. An excerpt: FIG. 8. […] The fluorescence intensity of the autophagosomes and the cytosol were quantified using SLIDEBOOK™ digital microscopy software.
The fluorescence intensity of the autophagosomes and the cytosol were quantified using Slidebook™ digital microscopy software (mean±SD) (FIG. 19).

In data set [8] the test system is COX2. The settings on record: Tg2576 mice, diet 8 weeks, lithium 2.25 mmol/kg/day.
In data set [9] the test system is GSK3β. The settings on record: Tg2576 mice, diet 8 weeks, 2.25 mmol/kg/day; LISPRO vs Li2CO3-treated, Li2CO3 vs control NIH31 diet. The text has this:
(§1) Inhibitory phosphorylation status of GSK3β was detected by anti-phospho-GSK3β (Ser^9) [pGSK3β (Ser^9)] antibody.

The test system of a further data set is tau. The settings on record: Tg2576 mice, diet 8 weeks, 2.25 mmol/kg/day; LISPRO vs Li2CO3-treated, Li2CO3 vs control NIH31 diet.
Source text: as §1

Data set [10] relates to β-amyloid pathology in Tg2576 mice. The settings on record: diet 8 weeks, lithium 2.25 mmol/kg/day, Li2CO3 vs control NIH31 diet. As to the method: All mice received normal drinking water ad libitum. […] Mouse brain tissue sections and homogenates were prepared from each mouse after treatment. Half-brain coronal sections were analyzed by Aβ antibody 4G8 staining (FIG. 14A). Percentage of 4G8 positive plaques (mean±SD) was quantified by image analysis (28, 29) (FIG. 14B). Total soluble and insoluble Aβ40,42 peptides from homogenates were analyzed by ELISA, and represented as picograms of Aβ peptides per mg of total protein (FIG. 14C).

The test system of another data set is cytokines and sCD40L. The settings on record: Tg2576 mice, diet 8 weeks, 2.25 mmol/kg/day, vs control NIH31 diet. The text has this:
In addition, spleens from these mice were isolated and splenocytes cultured as described previously (30).

For data set [11] the following is noted: rats, 4 mEq/kg lithium, oral gavage.

Take `O=C([O-])c1ccccc1O.[Li+]` [lithium salicylate]: in data set [1], the “difference in lithium levels in serum and brain homogenate between Li2CO3- and lithium salicylate-treated mice” value is recorded as “no significant difference”. Also, the “kidney microsomal COX2 expression levels versus control NIH31 diet” value with COX2 [2] is on record as “no significant difference”.
For `[Cl-].[Li+]` [LiCl], in data set [3], the “difference in MAP2 and GFAP immunofluorescence and WB between Li2CO3, LiCl and L-proline” value was “no significance difference”. Further, in the data set on N2a cells, the “difference in β-tubulin III and phospho-synapsin I immunofluorescence and WB between Li2CO3, LiCl and L-proline” value was “no notable or significant difference”. Also, the “difference in MAP2, phospho-synapsin I and total tau immunofluorescence and WB between Li2CO3, LiCl and L-proline” value in data set [4] is listed as “no significance difference”. In the data set on COX2 [5], the “difference in COX2 expression between Li2CO3 and LiCl” value is “no notable differences”. Moreover, the “difference in GSK3β phosphorylation between Li2CO3 and LiCl” value with GSK3β [6] is “no notable differences”. The “difference in fluorescence intensity of autophagosomes and cytosol versus Li2CO3” value in data set [7] (P>0.05) is on record as “no significance difference”.
For the molecule `O=C([O-])[O-].[Li+].[Li+]` [Li2CO3, lithium carbonate], the “difference in MAP2 and GFAP immunofluorescence and WB between Li2CO3, LiCl and L-proline” value in [3] is reported as “no significance difference”. The “kidney (renal) COX2 expression versus control mice” value in the data set on COX2 [8] is listed as “enhanced”. Also, the “difference in β-tubulin III and phospho-synapsin I immunofluorescence and WB between Li2CO3, LiCl and L-proline” value with N2a cells is “no notable or significant difference”. Besides, the “ratio of pGSK3β (Ser9) to total GSK3β in brain homogenates” value with GSK3β [9] is “no notable and significant difference”. Besides, in the data set on tau, the “ratio of p-tau (Thr231) to total tau in brain homogenates” value is “no notable and significant difference”. Also, in data set [4], the “difference in MAP2, phospho-synapsin I and total tau immunofluorescence and WB between Li2CO3, LiCl and L-proline” value is listed as “no significance difference”. Further, the “β-amyloid pathology (4G8 positive Aβ plaques in brain sections)” value in data set [10] is “no notable or significant difference”. Besides, the “difference in lithium levels in serum and brain homogenate between Li2CO3- and lithium salicylate-treated mice” value in data set [1] is on record as “no significant difference”. Also, the “difference in COX2 expression between Li2CO3 and LiCl” value with COX2 [5] is reported as “no notable differences”. Moreover, the “difference in GSK3β phosphorylation between Li2CO3 and LiCl” value in the data set on GSK3β [6] is “no notable differences”. Moreover, in the data set with cytokines and sCD40L, the “cytokine levels in plasma and splenocyte cultured media” value is on record as “no notable or significant difference”. Besides, in [11], the “brain lithium level profile” value is on record as “spike in brain lithium levels at 24 hours”; the “plasma lithium level at 48 hours” value is recorded as “nearly undetectable”; the “plasma lithium pharmacokinetic profile” value was “sharp peak and rapid elimination”. Further, the “autophagy (LC3B fluorescence intensity of autophagosomes and cytosol)” value in [7] was “significant enhancement of autophagy”.
For `O=C(O)[C@@H]1CCCN1` [L-proline], the “difference in MAP2 and GFAP immunofluorescence and WB between Li2CO3, LiCl and L-proline” value in data set [3] is “no significance difference”. Also, the “difference in β-tubulin III and phospho-synapsin I immunofluorescence and WB between Li2CO3, LiCl and L-proline” value with N2a cells was “no notable or significant difference”. Also, in [4], the “difference in MAP2, phospho-synapsin I and total tau immunofluorescence and WB between Li2CO3, LiCl and L-proline” value is “no significance difference”. Moreover, in the data set with COX2 [5], the “COX2 expression (WB)” value is on record as “no change”. In addition, in the data set with GSK3β [6], the “GSK3β activity / GSK3β (Ser9) phosphorylation (WB)” value was “no change”. Also, the “autophagy (LC3B fluorescence intensity of autophagosomes and cytosol)” value in data set [7] was “failed to promote any notable autophagy”.
